From PubChem BioAssay (NCI)
“And” between values parts separate entries of the source, which are not always exact repeats. Equal entries are not always repeated.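 Grown in 96-well plates, cells were treated for 48 hours with each compound at five concentrations. Insufficient inhibition: endpoint recorded as highest concentration tested. Here, GI50 denotes the concentration required for 50% inhibition of growth. At the TGI there is no net growth.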

Assays:
Assay in all cases: inhibition of tumour cell growth, NCI panel, 48 h
[1] = system: BT-549 breast
[2] = system: HCC-2998 colon
[3] = system: HCT-116 colon
[4] = system: HT29 colon
[5] = system: MDA-MB-231 breast
[6] = system: MDA-MB-435
[7] = system: NCI-H522 lung
[8] = system: OVCAR-5 ovarian
[9] = system: PC-3 prostate
[10] = system: RPMI-8226 leukemia

Row | SMILES | GI50 [1] | TGI [1] | GI50 [2] | TGI [2] | GI50 [3] | TGI [3] | GI50 [4] | TGI [4] | GI50 [5] | TGI [5] | GI50 [6] | TGI [6] | GI50 [7] | TGI [7] | GI50 [8] | TGI [8] | GI50 [9] | TGI [9] | GI50 [10] | TGI [10]
1 | CC(=O)Oc1ccc(C23c4ccccc4C2(OC(C)=O)c2cc(OC(C)=O)ccc23)cc1 (configuration not stated) | 2.76 µM | 6.49 µM | 2.91 µM | 8.46 µM | 3.56 µM | 12.7 µM | 39.7 µM | > 100 µM | 6 µM | 33.1 µM | 4.9 µM | 25.6 µM | 2.81 µM | 8.04 µM | 5.54 µM | 18 µM | 3 µM | 11.9 µM | 2.29 µM | 6.66 µM
2 | NCCSSCCN |  | > 100 µM |  | > 100 µM |  | > 100 µM |  | > 100 µM |  | > 100 µM |  | > 100 µM |  | > 100 µM |  | > 100 µM |  | > 100 µM |  | > 100 µM
3 | CCOC(=O)c1cc2cc3c4c(c2oc1=O)CCCN4CCC3 |  | > 100 µM |  | > 100 µM |  | 79 µM |  | > 100 µM |  | 69.2 µM |  | 83.5 µM |  | 45.6 µM |  | > 100 µM |  | 97.5 µM |  | 49.3 µM
4 | CC(C)Nc1cc(-c2c[nH]c(C(=O)N[C@H](CO)c3cccc(Cl)c3)c2)c(Cl)cn1 | 3.19 µM and > 5.25 µM | 15.7 µM and > 10 µM | 0.19 µM and 0.209 µM | 13.8 µM and > 10 µM | 0.154 µM and 0.162 µM | 11.4 µM and > 10 µM | 0.0894 µM and 0.0951 µM | 11.6 µM and > 10 µM | 1.67 µM and 1.02 µM | 13.6 µM and > 8.38 µM | 0.312 µM and 0.335 µM | 14.9 µM and > 10 µM | 2.33 µM and 2.35 µM | 19.8 µM and > 10 µM | 0.259 µM and 0.187 µM | 16.2 µM and > 10 µM | 3.96 µM and > 5.54 µM | 18.4 µM and > 10 µM | 3.09 µM and 1.14 µM | 45.9 µM and > 10 µM
5 | COc1ccc2c(=O)cc(-c3ccccc3)[nH]c2c1 | 0.56 µM | > 27.7 µM | 1.27 µM | 8.9 µM | 0.446 µM | > 100 µM | 0.379 µM | > 100 µM | 1.92 µM | > 100 µM | 0.18 µM | 0.523 µM | 0.698 µM | 14.2 µM | 22.2 µM | > 100 µM | 0.389 µM | > 100 µM | 0.564 µM | > 58.4 µM
6 | CC(C)c1cnn2c(NCc3ccccc3)cc(NC[C@H]3CCNC[C@@H]3O)nc12 | 1.81 µM and 1.27 µM | 4.4 µM and 3.08 µM | 0.534 µM and 0.645 µM | 5.55 µM and 3.51 µM | 0.168 µM and 0.158 µM | 10.9 µM and 10.8 µM | 0.285 µM and 0.369 µM | 10.3 µM and 5.73 µM | 0.388 µM and 0.536 µM | 7.52 µM and 3.67 µM | 0.343 µM and 0.578 µM | 1.74 µM and 2.07 µM | 0.844 µM and 0.438 µM | 2.7 µM and 2.43 µM | 0.312 µM and 0.575 µM | 6.72 µM and 5.38 µM | 0.363 µM and 0.587 µM | 6.73 µM and 10.4 µM | 0.158 µM and 0.211 µM | 1.82 µM and 4.14 µM
7 | O=C(O)c1ccc(NCn2nc(-c3ccccc3O)oc2=S)cc1 | 59.6 µM | > 100 µM | 29.2 µM | 93.7 µM | 23.7 µM | 57.3 µM | 38.6 µM | > 100 µM | 16.1 µM | 58.5 µM | > 100 µM | > 100 µM | > 100 µM | > 100 µM | > 100 µM | > 100 µM | 59.9 µM | > 100 µM | > 100 µM | > 100 µM
8 | CN(CCCCCl)P(=O)(OCCS(=O)(=O)CC(NC(=O)CCC(N)C(=O)O)C(=O)NC(C(=O)O)c1ccccc1)OCC1OC(n2ccc(N)nc2=O)C(F)(F)C1O (configuration not stated) | 0.783 µM | > 100 µM | 24.5 µM | > 100 µM | 0.0378 µM | > 100 µM | 0.586 µM | > 100 µM | 14.2 µM | > 100 µM | 0.178 µM | > 100 µM | 3.79 µM | > 100 µM | 0.872 µM | > 100 µM | 5.24 µM | > 100 µM | 0.901 µM | > 78.1 µM
9 | COc1cc(F)c(F)c(Nc2ccc(I)cc2F)c1NS(=O)(=O)C1(C[C@H](O)CO)CC1 | > 5.26 µM | > 10 µM | 0.0206 µM | > 4.24 µM | 0.201 µM | > 10 µM | 0.0308 µM | > 10 µM | 0.217 µM | > 9.46 µM | 0.0659 µM | > 10 µM | 3.72 µM | > 10 µM | 0.0597 µM | > 10 µM | > 6.75 µM | > 10 µM | 2.66 µM | > 10 µM
10 | COC(=O)C1C(O)CCC2CN3CCc4c([nH]c5ccccc45)C3CC21 (configuration not stated) |  | > 100 µM |  | > 100 µM |  | > 100 µM |  | > 100 µM |  | > 100 µM |  | > 100 µM |  | > 100 µM |  | > 100 µM |  | > 100 µM |  | > 100 µM
11 | CCCCCCCCOC(=O)CC[C@@H](C)[C@H]1CC[C@H]2[C@@H]3[C@H](OC(=O)CCN)C[C@@H]4C[C@H](OC(=O)CCN)CC[C@]4(C)[C@H]3C[C@H](OC(=O)CCN)[C@]12C | 20.4 µM | 46.9 µM | 13.8 µM | 39 µM | 2.43 µM | 5.43 µM | 2.44 µM | 5.79 µM | 2.44 µM | 7.9 µM | 3.96 µM | 18.4 µM | 2.26 µM | 4.42 µM | 3.24 µM | 10.1 µM | 7.17 µM | 22.4 µM | 8.42 µM | 33.6 µM
12 | O=C(NOC[C@H](O)CO)c1ccc(F)c(F)c1Nc1ccc(I)cc1F | 10.8 µM and > 10 µM | > 31.4 µM |  | 2.24 µM | 0.0265 µM and 0.0182 µM | > 100 µM | < 0.01 µM and 0.00291 µM | > 100 µM | 0.16 µM and 0.0347 µM | 62.7 µM and > 10 µM | < 0.01 µM and 0.00416 µM | > 100 µM |  | > 100 µM | < 0.01 µM and 0.0036 µM | > 100 µM | 62.6 µM and > 10 µM | > 100 µM | 35.9 µM and > 10 µM | > 100 µM
13 | Nc1nonc1-c1nc2cnccc2n1C1CC1 | 3.85 µM | 19.2 µM | 12.4 µM | > 25 µM | 5.62 µM | > 25 µM | 5.87 µM | > 25 µM | 8.75 µM | > 25 µM | 11.2 µM | > 25 µM | 3.43 µM | 13.2 µM | 5.14 µM | > 25 µM | 17.7 µM | > 25 µM | 6.46 µM | 24.4 µM
14 | CN(C)CCNc1ccc(CO)c2sc3ccc(O)cc3c(=O)c12 |  | 8.93 µM |  | 7.4 µM |  | 9.71 µM |  | 9.35 µM |  | 4.24 µM |  | 4.34 µM |  | 3.49 µM |  | 14.6 µM |  | 5.92 µM |  | 12.8 µM
15 | O=[N+]([O-])c1cc(Cl)c2[nH]c3c(Cl)cc([N+](=O)[O-])cc3c2c1 | 0.326 µM | 5.34 µM | 0.331 µM | > 100 µM | 0.263 µM | 7.12 µM | 0.431 µM | > 100 µM | 0.482 µM | 8.89 µM | 0.31 µM |  | 0.286 µM | > 100 µM | 1.33 µM | > 29.5 µM | 0.379 µM | > 100 µM | 0.124 µM | > 100 µM
